Earlier results as cited in PubChem BioAssay AID1259410 (Chemical Carcinogenesis Research Information System (CCRIS), 2018).

Test system: rodent tumor promotion studies, tumor incidence
Assay: CCRIS tumor promotion studies

Clc1cnc(Oc2ccc(Oc3ncc(Cl)cc3Cl)cc2)c(Cl)c1
outcome (Carcinogen: N-NITROSODIETHYLAMINE, 55-18-5, Doses [Carcinogen]: 75 MG/KG BW ONCE, Doses [Promoter]: 0, 100O PPM IN DIET FOR DURATION OF STUDY BEGINNING 2 WK POST CARCINOGEN DOSE (STUDY DURATION: 74 WK), Route [Carcinogen]: INTRAPERITONEAL, Route [Promoter]: ORAL, Species: RAT, Strain/Sex: F344/MALE): liver: adenoma; thyroid: follicular cell adenoma | outcome (Carcinogen: N-NITROSODIETHYLAMINE, 55-18-5, Doses [Carcinogen]: 75 MG/KG BW ONCE, Doses [Promoter]: 0, 330 PPM IN DIET FOR DURATION OF STUDY BEGINNING 2 WK POST CARCINOGEN DOSE (STUDY DURATION: 74 WK), Route [Carcinogen]: INTRAPERITONEAL, Route [Promoter]: ORAL, Species: RAT, Strain/Sex: F344/MALE): liver: adenoma | outcome (Carcinogen: N-NITROSODIETHYLAMINE, 55-18-5, Doses [Carcinogen]: 75 MG/KG BW ONCE, Doses [Promoter]: 30 MG/KG IN CORN OIL 1/2 WK BEGINNING 2 WK POST CARCINOGEN DOSE AND CONTINUING FOR 71 WK (STUDY DURATION: 73 WK), Route [Carcinogen]: INTRAPERITONEAL, Route [Promoter]: INTRAPERITONEAL, Species: RAT, Strain/Sex: F344/MALE): nasal cavity: carcinoma | outcome (Carcinogen: N-NITROSODIETHYLAMINE, 55-18-5, Doses [Carcinogen]: 90 MG/KG BW ONCE, Doses [Promoter]: 3 MG/KG BW IN CORN OIL 1/2 WK BEGINNING 2 WK POST CARCINOGEN DOSE AND CONTINUING FOR 24 WK (STUDY DURATION: 55 WK), Route [Carcinogen]: INTRAPERITONEAL, Route [Promoter]: INTRAGASTRIC, Species: MOUSE, Strain/Sex: C57BL/MALE): liver: hepatocellular adenoma or carcinoma | outcome (Carcinogen: N-NITROSODIETHYLAMINE, 55-18-5, Doses [Carcinogen]: 90 MG/KG BW ONCE, Doses [Promoter]: 3 MG/KG BW IN CORN OIL 1/2 WK BEGINNING 2 WK POST CARCINOGEN DOSE AND CONTINUING FOR 24 WK (STUDY DURATION: 55 WK), Route [Carcinogen]: INTRAPERITONEAL, Route [Promoter]: INTRAGASTRIC, Species: MOUSE, Strain/Sex: DBA/MALE): liver: hepatocellular adenoma or carcinoma | outcome (Carcinogen: N-NITROSODIETHYLAMINE, 55-18-5, Doses [Carcinogen]: 90 MG/KG BW ONCE, Doses [Promoter]: 3 MG/KG BW IN CORN OIL 1/2 WK BEGINNING 2 WK POST CARCINOGEN DOSE AND CONTINUING FOR 24 WK (STUDY DURATION: 55 WK), Route [Carcinogen]: INTRAPERITONEAL, Route [Promoter]: INTRAPERITONEAL, Species: MOUSE, Strain/Sex: C57BL/MALE): liver: hepatocellular adenoma or carcinoma | outcome (Carcinogen: N-NITROSODIETHYLAMINE, 55-18-5, Doses [Carcinogen]: 90 MG/KG BW ONCE, Doses [Promoter]: 3 MG/KG BW IN CORN OIL 1/2 WK BEGINNING 2 WK POST CARCINOGEN DOSE AND CONTINUING FOR 24 WK (STUDY DURATION: 55 WK), Route [Carcinogen]: INTRAPERITONEAL, Route [Promoter]: INTRAPERITONEAL, Species: MOUSE, Strain/Sex: DBA/MALE): liver: hepatocellular adenoma or carcinoma

CC(C)(Oc1ccc(Cl)cc1)C(=O)O
outcome (Carcinogen: Diethylnitrosamine (DEN), 55-18-5, Doses [Carcinogen]: 30 mg/kg, single injection 12 d before initial administration of clofibrate, Doses [Promoter]: 0.5% in diet for up to 12 or 20 mo, Route [Carcinogen]: Intraperitoneal, Route [Promoter]: Oral, Species: Rat, Strain/Sex: F344/Male (175 divided into 4 groups, Vehicle control, DEN, DEN + clofibrate, and clofibrate)): liver: den injection accelerated the appearance of tumors without detectably mod

CC(=O)O
outcome (Carcinogen: LEAD SUBACETATE, 1335-32-6, Doses [Carcinogen]: 1% IN DIET FOR 18 MO, Doses [Promoter]: 0, 0.3, 1, 3, 6% IN DIET FOR 18 MO (STUDY DURATION: 79 WK), Doses [Promoter]: 0, 0.3, 1, 3, 6% IN DIET FOR 18 MO (STUDY DURATION: 79 WK), Route [Carcinogen]: ORAL, Route [Promoter]: ORAL, Species: RAT, Strain/Sex: SPRAGUE-DAWLEY/MALE): kidney: tumor

CC1=C[C@H]2[C@@]3(O)[C@H](C)[C@@H](O)[C@]4(O)[C@H]([C@@H]3C=C(CO)C[C@]2(O)C1=O)C4(C)C
outcome (Carcinogen: 2-(ACETYLAMINO)FLUORINE, Doses [Carcinogen]: TRANS-PLACENTAL, Route [Carcinogen]: TRANS-PLACENTAL, Route [Promoter]: INTRAPERITONEAL, Species: MOUSE, Strain/Sex: C57BL/MALE,FEMALE): liver | outcome (Carcinogen: 7,12-DIMETHYLBENZ(A)ANTHRACENE, Doses [Carcinogen]: IG, Route [Carcinogen]: GAVAGE, Route [Promoter]: INTRAPERITONEAL, Species: RAT, Strain/Sex: FEMALE): mammary glands; hematopoietic system (leukemia, thymic) | outcome (Carcinogen: 7,12-DIMETHYLBENZ(A)ANTHRACENE, Doses [Carcinogen]: TOP, Route [Carcinogen]: DERMAL, Route [Promoter]: INTRAPERITONEAL, Species: MOUSE, Strain/Sex: FEMALE): hematopoietic system (leukemia, nonthymic) | outcome (Carcinogen: DIMETHYLNITROSAMINE, Doses [Carcinogen]: SC, Route [Carcinogen]: SUBCUTANEOUS, Route [Promoter]: INTRAPERITONEAL, Species: MOUSE, Strain/Sex: MALE,FEMALE): lung; liver

C#C[C@]1(O)CC[C@H]2[C@@H]3CCc4cc(OC)ccc4[C@H]3CC[C@@]21C
outcome (Carcinogen: DIETHYLNITROSAMINE, 55-18-5, Doses [Carcinogen]: 20 MG/KG IN 0.85% SALINE ONCE PRECEDED 24 HR BY 2/3 PARTIAL HEPATECTOMY, Doses [Promoter]: 0, 0.1, 0.5 PPM IN DIET FOR 12 MO BEGINNING 24 HR POST CARCINOGEN (STUDY DURATION: 12 MO), Doses [Promoter]: 0, 0.1, 0.5 PPM IN DIET FOR 12 MO BEGINNING 24 HR POST CARCINOGEN (STUDY DURATION: 12 MO), Route [Carcinogen]: INTRAPERITONEAL, Route [Promoter]: ORAL, Species: RAT, Strain/Sex: CD-1/FEMALE): liver: hepatocellular carcinoma

Cc1ccc(O)cc1C
outcome (Carcinogen: 7,12-DIMETHYLBENZ(A)ANTHRACENE, Doses [Carcinogen]: TOP, Route [Carcinogen]: DERMAL, Route [Promoter]: DERMAL, Species: MOUSE, Strain/Sex: FEMALE): integumentary system (skin)

CC1(C)OC(=O)N(c2cc(Cl)cc(Cl)c2)C1=O
outcome (Carcinogen: 2-(ACETYLAMINO)FLUORINE, Doses [Carcinogen]: DIET, Doses [Promoter]: IN DIET, Route [Carcinogen]: ORAL, Route [Promoter]: ORAL, Species: RAT, Strain/Sex: MALE): liver

C[C@H](N)C(=O)NCC(=O)N[C@H]1CSSC[C@@H](C(=O)O)NC(=O)[C@H](CO)NC(=O)[C@H]([C@@H](C)O)NC(=O)[C@H](Cc2ccccc2)NC(=O)[C@H]([C@@H](C)O)NC(=O)[C@H](CCCCN)NC(=O)[C@H](Cc2c[nH]c3ccccc23)NC(=O)[C@H](Cc2ccccc2)NC(=O)[C@H](Cc2ccccc2)NC(=O)[C@H](CC(N)=O)NC(=O)[C@H](CCCCN)NC1=O
outcome (Carcinogen: N-METHYL-N'-NITRO-N-NITROSOGUANIDINE, 70-25-7, Doses [Carcinogen]: 25 UG/ML DRINKING WATER FOR 25 WK, Doses [Promoter]: 0, 100, 200 UG/KG IN OLIVE OIL 1/2 D BEGINNING POST CARCINOGEN DOSE FOR DURATION OF STUDY (STUDY DURATION: 52 WK), Doses [Promoter]: 0, 100, 200 UG/KG IN OLIVE OIL 1/2 D BEGINNING POST CARCINOGEN DOSE FOR DURATION OF STUDY (STUDY DURATION: 52 WK), Route [Carcinogen]: ORAL, Route [Promoter]: SUBCUTANEOUS, Species: RAT, Strain/Sex: WISTAR/MALE): glandular stomach: adenocarcinoma

Cc1cc(O)c2c(c1)Cc1cccc(O)c1C2=O
outcome (Carcinogen: 7,12-DIMETHYLBENZ(A)ANTHRACENE, Doses [Carcinogen]: 10 NMOL ONCE, Doses [Promoter]: 50 UG 2/WK FOR 21 WK, Route [Carcinogen]: DERMAL, Route [Promoter]: DERMAL, Species: MOUSE, Strain/Sex: SENCAR/FEMALE): integumentary system (skin): papilloma | outcome (Carcinogen: 7,12-DIMETHYLBENZ[A]ANTHRACENE, 57-97-6, Doses [Carcinogen]: 6.4 UG ONCE, Doses [Promoter]: 0, 52.8 UG 1/WK FOR 10 WK BEGINNING 2 WK POST CARCINOGEN DOSE (STUDY DURATION: 32 WK), Route [Carcinogen]: DERMAL, Route [Promoter]: DERMAL, Species: MOUSE, Strain/Sex: SENCAR/FEMALE): skin: papilloma

Cc1cc(=O)[nH]c(=S)[nH]1
outcome (Carcinogen: 2-(ACETYLAMINO)FLUORINE, Doses [Carcinogen]: IG, Doses [Promoter]: IN DIET, Route [Carcinogen]: GAVAGE, Route [Promoter]: ORAL, Species: RAT, Strain/Sex: MALE,FEMALE): thyroid gland

ClC(Cl)=C(Cl)C(Cl)=C(Cl)Cl
outcome (Carcinogen: N-ETHYL-N-HYDROXYETHYLNITROSAMINE, 13147-25-6, Doses [Carcinogen]: 0.1% IN DRINKING WATER FOR 2 WK, Doses [Promoter]: 0, 0.1% IN DIET FOR 30 WK BEGINNING POST CARCINOGEN TREATMENT (STUDY DURATION: 32 WK), Route [Carcinogen]: ORAL, Route [Promoter]: ORAL, Species: RAT, Strain/Sex: WISTAR/MALE): kidney: renal cell tumor

CC[C@H](C)[C@H](N)C(=O)O
outcome (Carcinogen: N-BUTYL-N-(4-HYDROXYBUTYL)NITROSAMINE, 3817-11-6, Doses [Carcinogen]: 0.05% IN DRINKING WATER FOR 4 WK, Doses [Promoter]: 0, 2% IN DIET BEGINNING POST CARCINOGEN TREATMENT AND CONTINUING FOR DURATION OF STUDY (STUDY DURATION: 40 WK), Route [Carcinogen]: ORAL, Route [Promoter]: ORAL, Species: RAT, Strain/Sex: F344/MALE): bladder: carcinoma
